Laboratory results from patent US10226482B2, “Copolymer and method for treatment of bacterial infection” (RECCE LIMITED, priority 2014, dated 2019).
Like-named read-outs stand apart in the source and are kept apart here.

How the values were obtained:
MRSA (S. aureus USA300) = assay: Example 9: curative treatment by tail injection of infected mice; assay type: in vivo, BALB/c mice; conditions: 1 to 7 scale (1 alert and healthy); tail injection 24 hours after infection; Example 1 132 mg/Kg, Comparative Example 1 167 mg/Kg, Oxacillin 500 mg/Kg
Method: All experiments were prior-audited, and then supervised to comply with international standards to ensure humane treatment of the animals. All experiments were performed in independent laboratories. In particular, all experiments in Examples 6, 7 and 8 were done in USA within pre-designed protocols specifically to research sepsis and bacteremia; protocols were “blinded” of the identity of test-solutions, to both the supervisor and assistants. All infections were in 100 μL, designed to result in approximately 10^7 cfu/mL infection of mouse-blood; mice were type BALB/c—ten per group in each experiment. Mice were assessed by either sacrifice followed by cfu/g count of bacteria within organ(s), or within a 1 to 7 scale of Health Score, including (1; alert and healthy) to (5; sick and very ruffled coat; euthanized) to (7; deceased). The protocols are tabulated, and follow.
Four groups of each 10 mice were infected with S. aureus superbug (S. aureus USA300), and 24 hours afterwards each group treated curatively with respectively: The copolymer of Example 1 (Ex 1) MW 500 at 132 mg/Kg of mouse; copolymer MW 2500 Comparative Example 1 (CE 1) at 167 mg/Kg of mouse; positive control Oxacillin, 500 mg/Kg and negative control saline. FIG. 5 is a chart showing the number of mice culled due to morbidity or mortality.

E. coli = assay type: cell-based
Method: (§1) […] The inoculated test solutions, pH 6.5 to 7.0 were then incubated at 37° C. for sufficient time-periods such that approximately 10^2-10^3 cfu/mL (or 99-99.9% of organisms) killed was achieved.
(§2) A 1 mL aliquot was removed from each respective solution and mixed for one minute with a 1 mL aliquot of Trypticase Soy Broth, then 8 mL of sterile water was added and mixed. Aliquots (1 mL) were then removed from each solution and lawn-inoculated by flooding onto Horse Blood Agar plates for 24-48 hours incubation at 37° C. Visual counts of bacterial growth on the plates were performed.
(§3) Successive generations of E. coli, S. aureus or P. aeruginosa respectively were cultivated via their selection through repeated exposure to a copolymer or Amoxicillin; Organisms surviving treatment were harvested for another cycle of treatment—this process being repeated up to 25 times.

S. aureus = assay type: cell-based
Method: as §1, §2, §3

P. aeruginosa = assay type: cell-based; conditions: with broth
Method: Three test organisms—E. coli, S. aureus and P. aeruginosa—were respectively inoculated to achieve an approximate concentration 10^6 cfu/mL in the test solutions; the test solutions each comprised 19 g sterile distilled water, 1 mL trypticase soy broth and copolymer (Example 1; 383 mg; 5.4% w/w on acrolein added) or Comparative Example 1; 303 mg; 6.7% w/w solution on acrolein added). The inoculated test solutions, pH 6.5 to 7.0 were then incubated at 37° C. for sufficient time-periods such that approximately 10^2-10^3 cfu/mL (or 99-99.9% of organisms) killed was achieved.
as §2, §3

[1] = 0.35% w/w solution of Amoxicillin

| SMILES | Health Score of surviving mice (MRSA (S. aureus USA300)) | generation after which bacterial resistance resulted (E. coli; [1]) | Number of generations of microbes to resistance (E. coli; with broth) | Number of generations of microbes to resistance (E. coli; without broth) | generation after which bacterial resistance resulted (S. aureus; [1]) | Number of generations of microbes to resistance (S. aureus; with broth) | Number of generations of microbes to resistance (S. aureus; without broth) | Number of generations of microbes to resistance (P. aeruginosa) |
| --- | --- | --- | --- | --- | --- | --- | --- | --- |
| Cc1onc(-c2ccccc2)c1C(=O)N[C@@H]1C(=O)N2[C@@H]1SC(C)(C)[C@@H]2C(=O)O [Oxacillin] | 2.5 | – | – | – | – | – | – | – |
| CC1(C)S[C@@H]2[C@H](NC(=O)[C@H](N)c3ccc(O)cc3)C(=O)N2[C@H]1C(=O)O [Amoxicillin] | – | second | 8 | 2 | eighth | 10 | 8 | 6 |
